The source of these data is US8846928B2 (Portola Pharmaceuticals, Inc., priority 2010, dated 2014).

The assay addresses T1, full length active recombinant SYK enzyme (Homo sapiens, UniProt P43405).
T1 construct: full length active recombinant SYK enzyme (Millipore, Calif.); purchased Millipore
The assay is described as follows: Inhibition of Syk tyrosine phosphorylation activity (LANCE TR-FRET kinase assay). The format is biochemical.
As a reminder, the IC50 is the concentration at which inhibition is half-maximal. As to `N#Cc1cc(C(N)=O)c(Nc2cccc(-n3nccn3)c2)nc1NC[C@@H](N)C1CC1` [Example 111, (S)-2-(3-(2H-1,2,3-triazol-2-yl)phenylamino)-6-(2-amino-2-cyclopropylethylamino)-5-cyanonicotinamide], the IC50 was in the range of 0.1 to 1 µM.

For `C[C@H](CN)Nc1nc(Nc2cccc3nn(C)cc23)c(C(N)=O)cc1C#N` [Example 112, (R)-6-(1-aminopropan-2-ylamino)-5-cyano-2-(2-methyl-2H-indazol-4-ylamino)nicotinamide], the IC50 lay in the range of 0.01 to 0.1 µM.

`N#Cc1cc(C(N)=O)c(Nc2ccc3ncccc3c2)nc1N[C@@H]1CCCC[C@@H]1N` [Example 113, 6-((1R,2S)-2-aminocyclohexylamino)-5-cyano-2-(quinolin-6-ylamino)nicotinamide]: the IC50 fell in the range of 0.001 to 0.01 µM.

For `C[C@H](CN)Nc1nc(Nc2ccc3ncccc3c2)c(C(N)=O)cc1C#N` [Example 114, (R)-6-(1-aminopropan-2-ylamino)-5-cyano-2-(quinolin-6-ylamino)nicotinamide], the IC50 lay within 0.01 to 0.1 µM.

Consider `Cn1cc2c(Nc3nc(N[C@@H]4CCCC[C@@H]4N)c(C#N)cc3C(N)=O)cccc2n1` [Example 115, 6-((1R,2S)-2-aminocyclohexylamino)-5-cyano-2-(2-methyl-2H-indazol-4-ylamino)nicotinamide], for which the concentration for half-maximal inhibition (IC50) was in the range of 0.001 to 0.01 µM.

Turning to `NC(=O)c1cc(C(N)=O)c(N[C@@H]2CCCC[C@@H]2N)nc1Nc1cccc(-n2nccn2)c1` [Example 116, 2-(3-(2H-1,2,3-triazol-2-yl)phenylamino)-6-((1R,2S)-2-aminocyclohexylamino)pyridine-3,5-dicarboxamide], the IC50 lay in the range of 0.1 to 1 µM.

As for `N#Cc1cc(C(N)=O)c(Nc2ccc3[nH]ncc3c2)nc1N[C@@H]1CCCC[C@@H]1N` [Example 117], the IC50 is 0.001 to 0.01 µM.

`N#Cc1cc(C(N)=O)c(Nc2ccc3ncsc3c2)nc1N[C@@H]1CCCC[C@@H]1N` [Example 118, 6-((1R,2S)-2-aminocyclohexylamino)-2-(benzo[d]thiazol-6-ylamino)-5-cyanonicotinamide]: the IC50 fell in the range of 0.001 to 0.01 µM.

On to `N#Cc1cc(C(N)=O)c(Nc2ccc3ncsc3c2)nc1NC[C@@H](N)C1CC1` [Example 119, (S)-6-(2-amino-2-cyclopropylethylamino)-2-(benzo[d]thiazol-6-ylamino)-5-cyanonicotinamide], for which the IC50 was 0.01 to 0.1 µM.

As for `Cn1ncc2c(Nc3nc(N[C@@H]4CCCC[C@@H]4N)c(C#N)cc3C(N)=O)cccc21` [Example 120, 6-((1R,2S)-2-aminocyclohexylamino)-5-cyano-2-(1-methyl-1H-indazol-4-ylamino)nicotinamide], the IC50 fell in the range of 0.001 to 0.01 µM.

In the case of `N#Cc1cc(C(N)=O)c(Nc2ccc(-n3cccn3)cc2)nc1N[C@@H]1CCCC[C@@H]1N` [Example 121, 2-(4-(1H-pyrazol-1-yephenylamino)-6-(1R,2S)-2-aminocyclohexylamino)-5-cyanonicotinamide], the half-inhibitory concentration (IC50) lay in the range of 0.01 to 0.1 µM.

For the compound `CC(C)C[C@H](CN)Nc1nc(Nc2ccc3ncccc3c2)c(C(N)=O)cc1C#N` [Example 122, (R)-6-(1-amino-4-methylpentan-2-ylamino)-5-cyano-2-(quinolin-6-ylamino)nicotinamide], the IC50 was 0.001 to 0.01 µM.

`CC(C)C[C@H](CN)Nc1nc(Nc2ccc3ncsc3c2)c(C(N)=O)cc1C#N` [Example 123, (R)-6-(1-amino-4-methylpentan-2-ylamino)-2-(benzo[d]thiazol-6-ylamino)-5-cyanonicotinamide]: the IC50 fell in the range of 0.001 to 0.01 µM.

In the case of `CC(C)C[C@@H](Nc1nc(Nc2ccc3ncccc3c2)c(C(N)=O)cc1C#N)C(N)=O` [Example 124, (R)-6-(1-amino-4-methyl-1-oxopentan-2-ylamino)-2-(quinolin-6-ylamino)-5-cyanonicotinamide], the IC50 lay in the range of 0.01 to 0.1 µM.

Consider `CC(C)C[C@@H](Nc1nc(Nc2cccc(-n3nccn3)c2)c(C(N)=O)cc1C#N)C(N)=O` [Example 125, (R)-2-(3-(2H-1,2,3-triazol-2-yl)phenylamino)-6-(1-amino-4-methyl-1-oxopentan-2-ylamino)-5-cyanonicotinamide], for which the IC50 was 0.1 to 1 µM.
